Measurements reported in patent US12398141B2 (SHANGHAI SYNERGY PHARMACEUTICAL SCIENCES CO., LTD, priority 2019, dated 2025).

Tests used:
Blast T cell = assay: Cell proliferation test of IL-2 stimulated Blast T cell; assay type: cell-based; conditions: Homo sapiens; IL-2 stimulated Blast T cell proliferation, 72 hours
TF-1 cell = TF-1 cell proliferation test; assay type: cell-based; conditions: Homo sapiens, 72 h
male ICR mice = assay: Carrageenan-induced paw swelling in mice; assay type: in vivo; conditions: 10 mg/kg intragastric
How it was run: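 Compounds in 4% Tween 80/0.5% HPMC given intragastrically at 10 mg/kg (10 ml/kg); 0.5 h later 20 μL 1% carrageenan injected into the plantar. Paw volume measured before and at 0.5, 1 and 2 h; swelling rate expressed relative to baseline paw volume.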

[1] = Pharmacokinetic test after intragastric administration; assay type: in vivo; conditions: Sprague-Dawley, mouse, plasma, po, SD mice, 5 mg/kg intragastric
Method: Drug concentrations of compounds H01, H07, H11, H12, H14, H15, H22, H25, H29, H30, H33, H39 and H44 intragastrically administrated in plasma by using LC/MS/MS method at various time points were determined by using Sprague-Dawley (SD) […], aged 7-8 weeks and weighing […] as test animals. Pharmacokinetic behavior of the compounds of the invention in […] was studied and its pharmacokinetic characteristics were evaluated.
A certain amount of compounds was taken and dissolved in 50% PEG400/water to prepare a uniform solution.
Mice were administered intragastrically with the above compounds with a dosage of 5 mg/kg. Blood (0.2 ml) was taken from orbits before administration and 0.083 h, 0.25 h, 0.5 h, 1.0 h, 2.0 h, 4.0 h, 6.0 h, 8.0 h, 12.0 h and 24.0 h after administration. The blood was placed in anticoagulant tubes containing dipotassium ethylene glycol diethyl ether diamine tetraacetic acid, centrifugated at 6000 rpm at 4° C. for 10 minutes to separate plasma and saved at −80° C.
50 μL plasma at various time was taken and 150 μL acetonitrile solution containing internal standard tolbutamide (Sigma, USA) was added, mixed and stirred for 5 minutes. After centrifugation for 5 minutes at 12,000 rpm, 100 μL supernatant was taken, mixed with 200 μL water, following by sample injection and analysis.
Liquid chromatogram system was LC-20AD UFLC High Performance Liquid Chromatography system. Mass spectrum system was AB Sciex API4000 triple quadrupole mass spectrometer equipped with Electron Spray Ionization (ESI) (Applied Biosystems, Canada). A software for controlling liquid chromatography-mass spectrometry and quantitative analysis was Anna Rust 1.6 (Applied Biosystems, Canada). Pharmacokinetic parameters were analyzed by WinNonlin (version 5.2, Pharsight, Mountain View, […]) non-compartment model.
The test compound was dissolved in dimethyl sulfoxide to prepare a stock solution with a concentration of 1 mg/mL. The solution was diluted with 50% acetonitrile to obtain a series of standard working solutions with concentrations of 10 μg/mL, 3 μg/mL, 1 μg/mL, 0.3 μg/mL, 0.1 μg/mL, 0.03 μg/mL and 0.01 μg/mL, and a series of standard quality control solutions with concentrations of 8 μg/mL, 0.5 μg/mL, 0.03 μg/mL. 5 μL standard solution was mixed with 45 μL blank plasma substrate uniformly to obtain standard solutions of each concentration of a standard curve (1000 ng/mL, 500 ng/mL, 200 ng/mL, 100 ng/mL, 10 ng/mL, 5 ng/mL, 2 and 1 ng/mL) and quality control solutions (plasma samples: 800 ng/mL, 50 and 3 ng/mL).
Internal standard tolbutamide solid powder was dissolved in dimethyl sulfoxide to prepare a 1 mg/mL stock solution. The stock solution was diluted with 100% acetonitrile to obtain 200 ng/mL solution as a protein precipitation solution.

CN(c1c(C#N)cnc2[nH]ccc12)[C@H]1C[C@@H]2CN(C(=O)NCC(F)(F)F)C[C@@H]2C1 [Compound H22, (3aR,5s,6aS)-4-({2-[(2,2,2-trifluoroethyl)-carbamoyl]-hexahydrocyclopenta[c]pyrrole-5-yl}-methyl-amino)-1H-pyrrolo[2,3-b]pyridin-5-carbonitrile]
IC50 (Blast T cell): 0.019 µM | IC50 (TF-1 cell): 1.76 µM | Paw swelling_0.5 h (%) (male ICR mice; 0.5 h): 31.22 ± 2.62% | Paw swelling rate_1 h (%) (male ICR mice; 1 h): 41.76 ± 1.20% | Paw swelling rate_2 h (%) (male ICR mice; 2 h): 42.25 ± 5.67% | AUC(0-t) ([1]; read-out: Area under the curve (AUC0-24, ng/ml · h)): 0.757 ± 0.169 µg·h/mL | Cmax ([1]; read-out: Plasma concentration (Cmax, ng/ml)): 213 ± 22 ng/mL | half-life ([1]; read-out: half life (T1/2, h) (converted)): 3.11 ± 0.64 h
